Laboratory results from patent US9446012B2, “Pharmaceutical compounds” (BIAL-PORTELA & CA, S.A., priority 2006, dated 2016).

How the values were obtained:
liver COMT = test: Liver COMT activity after oral administration (methylation of adrenaline to metanephrine in liver homogenates); type: in vivo, rat; details: FIG. 1; for inhibition of liver COMT / inhibition of liver COMT activity / time to maximal inhibitory effect on liver COMT: 3 mg/kg; for inhibition of liver COMT: 24 hours after administration; for inhibition of liver COMT activity: nine hours after administration
[1] = Plasma levels of L-DOPA and 3-O-methyl-L-DOPA in rats treated with L-DOPA plus benserazide; type: in vivo, rat; details: 3 mg/kg
[2] = Brain levels of L-DOPA, 3-O-methyl-L-DOPA, dopamine, DOPAC and HVA in rats treated with L-DOPA plus benserazide; type: in vivo, rat
[3] = Treatment of Parkinson's disease patients on L-DOPA therapy; type: in vivo, human; details: tablets containing 50 mg
[4] = L-DOPA 12 mg/kg plus benserazide 3 mg/kg, all pre-treatment times (1, 7 and 24 h)
[5] = 3 mg/kg, L-DOPA plus benserazide, all pre-treatment times (1, 7 and 24 h)
[6] = 3 mg/kg, administered 24 h in advance

Structure (SMILES): Cc1nc(Cl)c(-c2noc(-c3cc(O)c(O)c([N+](=O)[O-])c3)n2)c(C)c1Cl [compound A, 5-[3-(2,5-dichloro-4,6-dimethylpyridin-3-yl)-[1,2,4]oxadiazol-5-yl]-3-nitrobenzene-1,2-diol]
- inhibition of liver COMT (liver COMT): 60 % of control levels
- inhibition of liver COMT activity (liver COMT): 90 % of control levels
- time to maximal inhibitory effect on liver COMT (liver COMT; oral administration): ≤ 6 h
- inhibitor of liver COMT (in words) (liver COMT; oral administration): potent inhibitor
- circulating 3-O-methyl-L-DOPA [1, 4]: marked decrease
- plasma L-DOPA [1, 4]: significant increases
- brain 3-O-methyl-L-DOPA [2, 5]: marked decrease
- brain DOPAC [2, 5]: significant increases
- brain L-DOPA [2, 5]: significant increases
- brain dopamine [2, 5]: significant increases
- clinical picture [3]: significant improvement

Structure (SMILES): Cc1ccc(C(=O)c2cc(O)c(O)c([N+](=O)[O-])c2)cc1 [tolcapone, 3,4-dihydroxy-4′-methyl-5-nitrobenzophenone]
- inhibition of liver COMT (liver COMT): almost devoid of COMT inhibitory properties
- time to maximal inhibitory effect on liver COMT (liver COMT; after administration): ≤ 0.5 h
- inhibition of liver COMT activity (liver COMT): minimal inhibitory effects
- 3-O-methyl-L-DOPA plasma levels ([1]; 2 and 7 h after administration): Significant changes
- L-DOPA plasma levels ([1]; 2 and 7 h after administration): Significant changes
- plasma levels of 3-O-methyl-L-DOPA ([1]; administered 24 h in advance): not affected
- plasma levels of L-DOPA ([1]; administered 24 h in advance): not affected
- brain levels of 3-O-methyl-L-DOPA [2, 6]: not affected
- brain levels of DOPAC [2, 6]: not affected
- brain levels of L-DOPA [2, 6]: not affected
- brain levels of dopamine [2, 6]: not affected
- steadiness of brain delivery of L-DOPA ([2]; rat, in vivo): marked oscillations
